Laboratory results: patent publication US20260315452A1, “PROTEASE INHIBITORS AND USES THEREOF” (priority 2023, published 2026)
pIC50: −log10 of the molar value.

Target: SARS-CoV-2 3CLpro (Severe acute respiratory syndrome coronavirus 2, UniProt P0DTD1)
Assay: biochemical
Conditions: inhibition of SARS-CoV-2 3CLpro; 15 nM 3CLpro, 25 μM fluorogenic substrate, 37° C.; read-out: Inhibitory Activity (IC50)

| SMILES | pIC50 |
| --- | --- |
| CNC(=O)c1cc(Br)cc([N+](=O)[O-])c1N[C@@H]1CCCC[C@@H]1NC(=O)c1cncc(OC)c1 [Compound 4, N-((1S, 2R)-2-((4-bromo-2-(methylcarbamoyl)-6-nitrophenyl)amino)cyclohexyl)-5-methoxynicotinamide] | 5.00 to 6.00 |
| CNC(=O)c1cc(Br)cc([N+](=O)[O-])c1N[C@H]1CN(C(c2cncc3ccccc23)C(F)(F)F)CCC1(F)F (some centres unmarked) [Compound 140, 5-bromo-2-(((35)-4,4-difluoro-1-(2,2,2-trifluoro-1-(isoquinolin-4-yl)ethyl)piperidin-3-yl)amino)-N-methyl-3-nitrobenzamide] | ≤ 5.00 |
| CNC(=O)c1cc(Cl)cc([N+](=O)[O-])c1N[C@H]1CN(C(=O)c2cncc3cccc(O)c23)CCC1(F)F [Compound 174, (S)-5-chloro-2-((4,4-difluoro-1-(5-hydroxyisoquinoline-4-carbonyl)piperidin-3-yl)amino)-N-methyl-3-nitrobenzamide] | > 7.00 |
| COC1CN(C(=O)c2cc(Br)cc(C(F)(F)F)c2N[C@H]2CN(C(=O)c3cncc4ccccc34)CCC2(F)F)C1 [Compound 172, (S)-(5-bromo-2-((4,4-difluoro-1-(isoquinoline-4-carbonyl)piperidin-3-yl)amino)-3-(trifluoromethyl)phenyl)(3-methoxyazetidin-1-yl)methanone] | > 7.00 |
| CNC(=O)c1cc(Br)cc([N+](=O)[O-])c1N[C@@H]1CCCC[C@@H]1NC(=O)c1cncnc1 [Compound 2, N-((1S, 2R)-2-((4-bromo-2-(methylcarbamoyl)-6-nitrophenyl)amino)cyclohexyl) pyrimidine-5-carboxamide] | ≤ 5.00 |
| CNC(=O)c1cc(Br)cc([N+](=O)[O-])c1N[C@H]1CN(C(=O)C2CC(=O)Nc3ccccc32)CCC1(F)F (some centres unmarked) [Compound 104] | > 7.00 |
| CNC(=O)c1cc(Br)cc([N+](=O)[O-])c1N1CC[C@H](CNC(=O)c2cncc3ccccc23)C1 [Compound 25, (R)-N-((1-(4-bromo-2-(methylcarbamoyl)-6-nitrophenyl)pyrrolidin-3-yl)methyl)isoquinoline-4-carboxamide] | 6.00 to 7.00 |
| CNC(=O)c1cc(Cl)cc([N+](=O)[O-])c1N[C@H]1CN(C(=O)c2cncc3ncccc23)CCC1(F)F [Compound 176, (S)-5-chloro-2-((4,4-difluoro-1-(1,7-naphthyridine-5-carbonyl)piperidin-3-yl)amino)-N-methyl-3-nitrobenzamide] | > 7.00 |
| CNC(=O)c1cc(Cl)cc([N+](=O)[O-])c1N[C@H]1CN(C(=O)c2cncc3ccncc23)CC[C@@H]1F [Compound 171, 5-chloro-2-(((3S, 4S)-4-fluoro-1-(2,6-naphthyridine-4 - carbonyl)piperidin-3-yl)amino)-N-methyl-3-nitrobenzamide] | > 7.00 |
| CNC(=O)c1cc(Br)cc([N+](=O)[O-])c1NCC1CN(C(=O)c2cncc3ccccc23)CC1(F)F (centres unmarked) [Compound 77, 5-bromo-2-(((4,4-difluoro-1-(isoquinoline-4-carbonyl)pyrrolidin-3-yl)methyl)amino)-N-methyl-3-nitrobenzamide] | 5.00 to 6.00 |
| CNC(=O)c1cc(Br)cc([N+](=O)[O-])c1N[C@H]1CN(C(=O)c2cncc3ccccc23)C[C@@H]1C [Compound 50, 5-bromo-2-[[(3R, 4S)-1-(isoquinoline-4-carbonyl)-4-methyl-pyrrolidin-3-yl]amino]-N-methyl-3-nitro-benzamide] | > 7.00 |
| CNC(=O)c1cc(Br)cc([N+](=O)[O-])c1N[C@@H]1CCCC[C@@H]1NC(=O)c1cncc(CN)c1 [Compound 6, 5-(aminomethyl)-N-((1S,2R)-2-((4-bromo-2-(methylcarbamoyl)-6-nitrophenyl)amino)cyclohexyl) nicotinamide] | ≤ 5.00 |
| O=C(N[C@@H]1CCNC1)c1cc(Br)cc([N+](=O)[O-])c1N[C@H]1CN(C(=O)c2cncc3ccccc23)CC1(F)F [Compound 150] | > 7.00 |
| CNC(=O)c1cc(Br)cc([N+](=O)[O-])c1N[C@H]1CN(C(=O)c2cc(=O)[nH]c3ccccc23)CCC1(F)F [Compound 103, (S)-5-bromo-2-((4,4-difluoro-1-(2-oxo-1,2-dihydroquinoline-4-carbonyl)piperidin-3-yl)amino)-N-methyl-3-nitrobenzamide] | > 7.00 |
| COC1CN(C(=O)c2cc(Cl)cc([N+](=O)[O-])c2N[C@H]2CN(C(=O)c3cncc4cccnc34)CCC2(F)F)C1 [Compound 111, (S)-(5-chloro-2-((4,4-difluoro-1-(1,6-naphthyridine-8-carbonyl)piperidin-3-yl)amino)-3-nitrophenyl)(3-methoxyazetidin-1-yl)methanone] | > 7.00 |
| CNC(=O)c1cc(Cl)cc([N+](=O)[O-])c1N[C@H]1CN(C(=O)c2cncc3cnccc23)CCC1(F)F [Compound 175, (S)-5-chloro-2-((4,4-difluoro-1-(2,7-naphthyridine-4-carbonyl)piperidin-3-yl)amino)-N-methyl-3-nitrobenzamide] | > 7.00 |

| SMILES | pIC50 |
| --- | --- |
| CNC(=O)c1cc(Br)cc([N+](=O)[O-])c1N[C@H]1CN(Cc2cncc3ccccc23)CCC1(F)F [Compound 32, (S)-5-bromo-2-((4,4-difluoro-1-(isoquinolin-4-ylmethyl)piperidin-3-yl)amino)-N-methyl-3-nitrobenzamide] | 6.00 to 7.00 |
| CC1(NC(=O)c2cc(Cl)cc([N+](=O)[O-])c2N[C@H]2CN(C(=O)c3cncc4ccccc34)CCC2(F)F)CC1 [Compound 152, (S)-5-chloro-2-((4,4-difluoro-1-(isoquinoline-4-carbonyl)piperidin-3-yl)amino)-N-(1-methylcyclopropyl)-3-nitrobenzamide] | > 7.00 |
| O=C(N[C@H]1CCOC1)c1cc(Cl)cc(C(F)(F)F)c1N[C@H]1CN(C(=O)c2cncc3ccccc23)CCC1(F)F [Compound 165, 5-chloro-2-(((S)-4,4-difluoro-1-(isoquinoline-4-carbonyl)piperidin-3-yl)amino)-N-((S)-tetrahydrofuran-3-yl)-3-(trifluoromethyl)benzamide] | > 7.00 |
| O=C(N[C@@H]1CCOC1)c1cc(Br)cc([N+](=O)[O-])c1N[C@H]1CN(C(=O)c2cncc3ccccc23)CC1(F)F [Compound 163, 5-bromo-2-(((S)-4,4-difluoro-1-(isoquinoline-4-carbonyl)pyrrolidin-3-yl)amino)-3-nitro-N-((R)-tetrahydrofuran-3-yl)benzamide] | > 7.00 |
| CNC(=O)c1cc(Br)cc([N+](=O)[O-])c1NC1(C2CN(C(=O)c3cncc4ccccc34)C2)CC1 [Compound 63, 5-bromo-2-((1-(1-(isoquinoline-4-carbonyl)azetidin-3-yl)cyclopropyl)amino)-N-methyl-3-nitrobenzamide] | 5.00 to 6.00 |
| CNC(=O)c1cc(Br)cc([N+](=O)[O-])c1N[C@@H]1CCC(C)(C)N(C(=O)c2cncc3ccccc23)C1 [Compound 138, (R)-5-bromo-2-((1-(isoquinoline-4-carbonyl)-6,6-dimethylpiperidin-3-yl)amino)-N-methyl-3-nitrobenzamide] | 6.00 to 7.00 |
| CNC(=O)c1cc(Br)cc([N+](=O)[O-])c1N[C@H]1CN(C(=O)c2cncc3cccnc23)CC[C@@H]1F [Compound 108, 5-bromo-2-(((3S, 4S)-4-fluoro-1-(1,6-naphthyridine-8-carbonyl)piperidin-3-yl)amino)-N-methyl-3-nitrobenzamide] | > 7.00 |
| CNC(=O)c1cc(Br)cc([N+](=O)[O-])c1N[C@H]1CN(C(=O)C2CC(=O)NC(=O)C2)CCC1(F)F [Compound 100, (S)-5-bromo-2-((1-(2,6-dioxopiperidine-4-carbonyl)-4,4-difluoropiperidin-3-yl)amino)-N-methyl-3-nitrobenzamide] | 6.00 to 7.00 |
| O=C(O)c1cc(Br)cc([N+](=O)[O-])c1N[C@@H]1CCCC[C@@H]1NC(=O)c1cncc2ccccc12 [Compound 52, 5-bromo-2-(((1R, 2S)-2-(isoquinoline-4-carboxamido)cyclohexyl)amino)-3-nitrobenzoic acid] | 5.00 to 6.00 |
| CNC(=O)c1cc(Br)cc([N+](=O)[O-])c1Nc1ccccc1NC(=O)c1cncc2ccccc12 [Compound 131, N-(2-((4-bromo-2-(methylcarbamoyl)-6-nitrophenyl)amino)phenyl) isoquinoline-4-carboxamide] | ≤ 5.00 |
| CNC(=O)c1cc(Br)cc([N+](=O)[O-])c1N[C@@H]1CCCC[C@@H]1NC(=O)c1cncc(N)c1 [Compound 3, 5-amino-N-((1S, 2R)-2-((4-bromo-2-(methylcarbamoyl)-6-nitrophenyl)amino)cyclohexyl)nicotinamide] | 5.00 to 6.00 |
| O=C(c1cc(Br)cc(C(F)(F)F)c1N[C@H]1CN(C(=O)c2cncc3cccnc23)CCC1(F)F)N1CC(O)C1 [Compound 110, (S)-(5-bromo-2-((4,4-difluoro-1-(1,6-naphthyridine-8-carbonyl)piperidin-3-yl)amino)-3-(trifluoromethyl)phenyl)(3-hydroxyazetidin-1-yl)methanone] | > 7.00 |
| CNC(=O)c1cc(Cl)cc([N+](=O)[O-])c1N[C@H]1CN(C(=O)c2cncc3cnn(C)c23)CCC1(F)F [Compound 106, (S)-5-chloro-2-((4,4-difluoro-1-(1-methyl-1H-pyrazolo[4,3-c]pyridine-7-carbonyl)piperidin-3-yl)amino)-N-methyl-3-nitrobenzamide] | > 7.00 |
| CN(C)C(=O)c1cc(Br)cc([N+](=O)[O-])c1N[C@H]1CN(C(=O)c2cncc3ccccc23)CC1(F)F [Compound 161, (S)-5-bromo-2-((4,4-difluoro-1-(isoquinoline-4-carbonyl)pyrrolidin-3-yl)amino)-N, N-dimethyl-3-nitrobenzamide] | > 7.00 |
| NC(=O)c1cc(Br)cc([N+](=O)[O-])c1N[C@H]1CN(C(=O)c2cncc3ccccc23)CCC1(F)F [Compound 49, (S)-5-bromo-2-((4,4-difluoro-1-(isoquinoline-4-carbonyl)piperidin-3-yl)amino)-3-nitrobenzamide] | > 7.00 |
| CNC(=O)c1cc(Cl)cc([N+](=O)[O-])c1N[C@H]1CN(C(=O)c2cncc3cc(O)ccc23)CCC1(F)F [Compound 168, (S)-5-chloro-2-((4,4-difluoro-1-(7-hydroxyisoquinoline-4-carbonyl)piperidin-3-yl)amino)-N-methyl-3-nitrobenzamide] | > 7.00 |
